Measured values: patent publication US8945652B2, “High-potency sweetener for weight management and compositions sweetened therewith” (The Coca-Cola Company, priority 2005, dated 2015)

Test: Sensory evaluation of sweetness linger and taste by expert panel
Set-up: key: 0=no sweetness linger; 1=very slight sweetness linger; 2 slight sweetness linger; 3=moderate sweetness linger; 4=moderately high sweetness linger; 5=high sweetness linger
Settings: scale 0-5
Description: In a particular embodiment, a panel of assessors is used to measure the reduction of sweetness linger. Briefly described, a panel of assessors (generally 8 to 12 individuals) is trained to evaluate sweetness perception and measure sweetness at several time points from when the sample is initially taken into the mouth until 3 minutes after it has been expectorated. […] A decrease in score for a time point measured after the sample has cleared the mouth indicates there has been a reduction in sweetness perception.
The panel of assessors may be trained using procedures well known to those of ordinary skill in the art. In a particular embodiment, the panel of assessors may be trained using the Spectrum™ Descriptive Analysis Method (Meilgaard et al, Sensory Evaluation Techniques, 3rd edition, Chapter 11). Desirably, the focus of training should be the recognition of and the measure of the basic tastes; specifically, sweet. In order to ensure accuracy and reproducibility of results, each assessor should repeat the measure of the reduction of sweetness linger about three to about five times per sample, taking at least a five minute break between each repetition and/or sample and rinsing well with water to clear the mouth.
Generally, the method of measuring sweetness comprises taking a 10 mL sample into the mouth, holding the sample in the mouth for 5 seconds and gently swirling the sample in the mouth, rating the sweetness intensity perceived at 5 seconds, expectorating the sample (without swallowing following expectorating the sample), rinsing with one mouthful of water (e.g., vigorously moving water in mouth as if with mouth wash) and expectorating the rinse water, rating the sweetness intensity perceived immediately upon expectorating the rinse water, waiting 45 seconds and, while waiting those 45 seconds, identifying the time of maximum perceived sweetness intensity and rating the sweetness intensity at that time (moving the mouth normally and swallowing as needed), rating the sweetness intensity after another 10 seconds, rating the sweetness intensity after another 60 seconds (cumulative 120 seconds after rinse), and rating the sweetness intensity after still another 60 seconds (cumulative 180 seconds after rinse). Between samples take a 5 minute break, rinsing well with water to clear the mouth.
Sensory evaluation of the samples prepared in Example Set G was carried out under the following protocol, similar to that described hereinabove. In this test protocol, none of the samples were swallowed. […] Immediately upon sensing maximal sweetness, the sample was expectorated, the mouth was rinsed with water and the rate of sweetness decay (“Sweetness Linger”) was measured, where attention was focused on the sweetness 3-4 min after the water rinse. […]

[1] = Example Set G, citric acid/potassium citrate composition equivalent to diet lemon-lime beverage, sweetness 3-4 min after water rinse
[2] = Example Set H, carbon-treated water with phosphoric acid (75%), pH 2.4-2.5

| Compound | Sweetness linger [1] | Sweetness linger [2] |
| --- | --- | --- |
| OC[C@H]1O[C@@](CO)(O[C@H]2O[C@H](CO)[C@@H](O)[C@H](O)[C@H]2O)[C@@H](O)[C@@H]1O [sugar, sucrose] | 0 | 0 |
| rebaudioside A | 5 | 5 |
